For orientation: IC50 means the concentration that inhibits the measured activity by half. Usually melting point stands for the temperature of the solid-liquid transition.

Series [1] addresses T1, murine ATGL (Mus musculus, UniProt Q8BJ56).
T1 construct: expressed in transfected cells; host or cells: COS-7 (ATCC CRL-1651), transient transfection with Metafectene; crude lysate after 1000 x g spin
T1 sequence (Q8BJ56 1-486): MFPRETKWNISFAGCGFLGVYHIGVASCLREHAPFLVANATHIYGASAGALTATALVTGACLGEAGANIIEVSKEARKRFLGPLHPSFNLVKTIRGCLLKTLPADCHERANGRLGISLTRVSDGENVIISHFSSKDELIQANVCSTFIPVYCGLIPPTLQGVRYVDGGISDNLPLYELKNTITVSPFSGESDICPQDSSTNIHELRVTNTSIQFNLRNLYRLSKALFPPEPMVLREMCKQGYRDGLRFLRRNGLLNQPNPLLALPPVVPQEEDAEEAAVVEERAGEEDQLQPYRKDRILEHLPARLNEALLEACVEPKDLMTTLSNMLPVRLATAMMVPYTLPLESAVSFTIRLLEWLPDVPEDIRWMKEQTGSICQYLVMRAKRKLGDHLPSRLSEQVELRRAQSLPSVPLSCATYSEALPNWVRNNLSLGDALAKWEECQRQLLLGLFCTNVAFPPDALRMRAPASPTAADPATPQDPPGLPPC
Briefly: Triglyceride hydrolase activity assay with COS7-cell lysate overexpressing recombinant murine ATGL, radiolabelled triolein substrate.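 On all read-outs here: radioactivity from the triolein substrate quantified by liquid scintillation counting after phase separation, reflecting triglyceride hydrolase activity of murine ATGL in lysates of transfected COS-7 cells.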 It is filed as biochemical. Conditions: for inhibition at 200 µM: 1 h, ATGL-inhibition efficiency at 200 μM inhibitor, read-out: I200 (%); for IC50 / biological activity against ATGL (in words): COS7-cell lysate overexpressing murine ATGL.
Procedure: All synthesized test compounds were screened for their efficiency to inhibit ATGL activity in vitro in an assay using radiolabelled triolein as substrate.[20] As ATGL cannot be purified, the assays were performed with COS7-cell lysates from cells overexpressing recombinant murine ATGL. For the determination of the IC50-value inhibitors were administered with increasing concentrations to the enzyme and its substrate. To determine the ATGL-inhibition efficiency at 200 μM (I200), 200 μM inhibitor was administered to the enzyme and its substrate.
For the determination of TG hydrolase activity cell lysates of COS-7 cells overexpressing recombinant murine ATGL were used. Therefore, monkey embryonic kidney cells (Cos-7; ATCC CRL-1651) were cultivated in Dulbeccos modified eagles medium (DMEM, GIBCO, Invitrogen Corp., Carlsbad, CA), containing 10% fetal calf serum (FCS, Sigma–Aldrich) and antibiotics (100 IU/mL penicillin and 100 μg/mL streptomycin) at standard conditions (37 °C, 5% CO2, 95% humidified atmosphere). Cells were transfected with 1 μg DNA complexed to Metafectene (Biontex GmbH, Munich, Germany) in serum free DMEM. After 4 h the medium was replaced by DMEM supplemented with 10% FCS. For the preparation of cell lysates, cells were washed with 1× phosphate buffered saline, collected using a cell scraper, and disrupted in buffer A (0.25 M sucrose, 1 mM EDTA, 1 mM dithiothreitol, 20 μg/mL leupeptine, 2 μg/mL antipain, 1 μg/mL pepstatin, pH 7.0) by sonication (Virsonic 475, Virtis, Gardiner, NJ). Nuclei and unbroken cells were removed by centrifugation (1000×g, 4 °C, for 10 min). Protein concentration of the cell lysates were determined by Bio-Rad protein assay according to the manufacturer’s protocol (Bio-Rad 785, Bio-Rad Laboratories, Munich, Germany), using BSA as standard.
The triolein (TO) substrate was prepared as described. […] In brief, 330 μM triolein (40,000 cpm/nmol) (GE Healthcare) was emulsified with 45 μM phosphatidylcholine/phosphatidylinositol (3:1) (Sigma) in 100 mM potassium phosphate buffer (pH 7.0) by sonication (Virsonic 475, Virtis) and was adjusted to 5% (w/v) fatty acid free bovine serum albumin (BSA, Sigma). 100 μL (20 μg protein) cell lysate or 2 μl purified recombinant LPL (Sigma–Aldrich) were incubated with 100 μL TO substrate in the presence or in the absence of inhibitors in a water bath for 1 h at 37 °C. After incubation, the reaction was terminated by adding 3.25 mL of methanol/chloroform/heptane (10:9:7) and 1 mL of 0.1 M potassium carbonate, 0.1 M boric acid (pH 10.5). After centrifugation (800 g, 15 min), the radioactivity in 1 mL of the upper phase was determined by liquid scintillation counting.

The test system of series [2] is WAT (white adipose tissue) organ cultures. The series is described as follows: Lipolysis of isolated WAT organ cultures of wild-type, ATGL-ko and HSL-ko mice (FA release). In kind it is cell-based. An excerpt:
As the hydrazone moiety is regarded as a problematic molecular group due to its metabolic instability resulting in toxic side products,[12] we prepared compound 8 which can be regarded as a variant of 1a missing one nitrogen atom (Scheme 5). […] Taken together these efforts have shown that the hydrazone moiety is an essential element of the biological activity of the hit compound 1a and could not be replaced by the most obvious structural isosteres. In order to further characterize our hit compound 1a and best inhibitor 1h, these compounds were tested for ATGL- and HSL-selectivity by the determination of lipolysis in WAT (white adipose tissue) organ cultures of wild-type, ATGL-ko, and HSL-ko mice. […]
µM Inhibitor µM Inhibitor […]
(also on this page, place not known: µmol glycerol/h*mg protein nmol FFA/ml/min nmol FFA/h*mg nmol FFA/h*mg) […]
Lipolysis of isolated WAT organ cultures - Gonadal fat pads of wild-type, ATGL deficient (ATGL-ko), and HSL deficient (HSL-ko) mice were surgically removed and washed several times with PBS.
Tissue pieces (~15 mg) were preincubated in DMEM containing 0, 10, 100, and 200 µM inhibitors for 8 h at C37°C, 5% CO2, 95 % humidified atmosphere. Thereafter, the medium was replaced by DMEM containing 2 % BSA (fatty acid-free) and 0, 10, 100, and 200 µM inhibitors, and incubated for another 60 min at 37°C. Then, aliquots of the medium were removed and analyzed for FA and glycerol content using commercial kits (HR Series NEFA-HR(2), WAKO Diagnostics, Neuss, Germany; Sigma, St.
Louis, MO). For protein determinations, fat pads were washed extensively with PBS and lysed in 0.3 […]
U. et al. Monoglyceride lipase deficiency in mice impairs lipolysis and attenuates diet-induced insulin

In turn, `Oc1ccc(/C=N/N2CCN(c3ccccc3)CC2)cc1O` [Compound 1a, (E)-4-((4-Phenylpiperazin-1-ylimino)methyl)benzene-1,2-diol] returned a melting point of 180 °C. In addition, in series [1], the inhibition at 200 µM came out at 69% and the 50% inhibitory concentration (IC50) was found to be 110 µM. Besides, in series [2] (0, 10, 100, 200 µM inhibitor, fat pads of wt, ATGL-ko, HSL-ko mice), the “FA release (lipolysis)” value was “dose dependent reduction of FA release”. Further, the “selectivity between ATGL and HSL” value in series [2] (lipolysis similarly decreased in ATGL and HSL deficient adipose tissue) is “no selectivity”.

As for `COc1ccc(/C=N/N2CCN(c3ccccc3)CC2)cc1O` [Compound 1c, (E)-2-Methoxy-5-((4-phenylpiperazin-1-ylimino)methyl)phenol], the melting point is 180 °C (dec.). Moreover, in series [1], the inhibition at 200 µM was 56%.

Take `COc1ccc(NC(=O)N2CCN(c3ccccc3)CC2)cc1OC` [Compound 12, N-(3,4-Dimethoxyphenyl)-4-phenylpiperazin-1-carboxamide]: the melting point was 122 to 125 °C. Also, in series [1], the inhibition at 200 µM was determined as 40% and the “biological activity against ATGL (in words)” value (shortened to “biological activity”) is listed as “no biological activity”.

Regarding `Oc1cccc(/C=N/N2CCN(c3ccccc3)CC2)c1` [Compound 1e, (E)-3-((4-Phenylpiperazin-1-ylimino)methyl)phenol], the melting point was 190 °C (dec.). For the same compound, the inhibition at 200 µM in series [1] was 71%.

Consider `Oc1ccc(/C=N/N2CCC(c3ccccc3)CC2)c(O)c1` [Compound 3h, (E)-4-((4-Phenylpiperidine-1-ylimino)methyl)benzene-1,3-diol], for which the melting point lay in the range of 139 to 142 °C. In series [1], the inhibition at 200 µM was determined as 81% and the concentration for half-maximal inhibition (IC50) came to 40 µM.

Turning to `Brc1ccccc1/C=N/N1CCN(c2ccccc2)CC1` [Compound 1q, (E)-N-(2-Bromobenzylidene)-4-phenylpiperazin-1-amine], the melting point was 88 to 90 °C. In addition, the inhibition at 200 µM in series [1] is 73%.

Regarding `C(=N\N1CCN(c2ccccc2)CC1)/C1CCCCC1` [Compound 2c, (E)-N-(Cyclohexylmethylen)-4-phenylpiperazin-1-amine], the melting point was 69 to 71 °C. Moreover, the inhibition at 200 µM in series [1] came to 49%.

Compound `Oc1ccc(/C=N/N2CCN(Cc3ccccc3)CC2)c(O)c1` [Compound 3d, (E)-4-((4-Benzylpiperazin-1-ylimino)methyl)benzene-1,3-diol] gave a melting point of 225 to 228 °C. Besides, the inhibition at 200 µM in series [1] amounted to 48%.

`Oc1ccccc1/C=N/N1CCN(c2ccccc2)CC1` [Compound 1f, (E)-2-((4-Phenylpiperazin-1-ylimino)methyl)phenol] had a melting point of 138 to 142 °C. For the same compound, the inhibition at 200 µM in series [1] was found to be 64%.

`Fc1ccc(/C=N/N2CCN(c3ccccc3)CC2)cc1F` [Compound 1m, (E)-N-(3,4-Difluorobenzylidene)-4-phenylpiperazin-1-amine]: the melting point was 152 to 154 °C. Moreover, in series [1], the inhibition at 200 µM was determined as 67% and the IC50 was determined as 75 µM.

In turn, `Clc1ccc(/C=N/N2CCN(c3ccccc3)CC2)c(Cl)c1` [Compound 1o, (E)-N-(2,4-Dichlorobenzylidene)-4-phenylpiperazin-1-amine] displayed a melting point of 113 to 115 °C. In addition, the inhibition at 200 µM in series [1] was 42%.

As for `C(=N\N1CCN(c2ccccc2)CC1)/c1ccc2ccccc2n1` [Compound 2i, (E)-4-Phenyl-N-(quinoline-2-ylmethylen)-piperazin-1-amine], the melting point fell in the range of 210 to 212 °C. For the same compound, in series [1], the inhibition at 200 µM turned out to be 8%.

In turn, `C(=N\N1CCN(c2ccccc2)CC1)/c1ccc2c(c1)OCCO2` [Compound 1y, (E)-N-((2,3-Dihydrobenzol[b][1,4]dioxin-6-yl)methylen)-4-phenylpiperazin-1-amine] displayed a melting point of 186 to 187 °C. Moreover, the inhibition at 200 µM in series [1] was 27%.

As for `C(=N\N1CCN(c2ccccc2)CC1)/c1ccc2c(c1)OCO2` [Compound 1x, (E)-N-(Benzo[d][1,3]dioxol-5-ylmethylen)-4-phenylpiperazin-1-amine], the melting point was 125 to 129 °C. The inhibition at 200 µM in series [1] was 64%.

Compound `Oc1ccc(/C=N/N2CCN(c3ccc(F)cc3)CC2)c(O)c1` [Compound 3b, (E)-4-((4-(4-Fluorophenyl)piperazin-1-ylimino)methyl)benzene-1,3-diol] came in with a melting point of 176 to 178 °C. Further, in series [1], the inhibition at 200 µM came to 78% and the half-inhibitory concentration (IC50) came out at 50 µM.

Consider `CN(C)c1ccc(/C=N/N2CCN(c3ccccc3)CC2)cc1` [Compound 1u, (E)-N-(4-(Dimethylamino)benzylidene)-4-phenylpiperazin-1-amine], for which the melting point is 190 °C (dec.). In series [1], the inhibition at 200 µM is 5%.

In turn, `C(=N\N1CCN(c2ccccc2)CC1)/c1ccccn1` [Compound 2e, (E)-4-Phenyl-N-(pyridine-2-ylmethylen)piperazin-1-amine] displayed a melting point of 117 to 119 °C. For the same compound, in series [1], the inhibition at 200 µM is 16%.

For the compound `C(=N\N1CCN(c2ccccc2)CC1)/c1ccncc1` [Compound 2g, (E)-4-Phenyl-N-(pyridine-4-ylmethylen)piperazin-1-amine], the melting point was in the range of 156 to 158 °C. In series [1], the inhibition at 200 µM was determined as 60% and the “biological activity” value is listed as “moderate activity”.

`C1=C(/C=N/N2CCN(c3ccccc3)CC2)CCCC1` [Compound 2d, (E)-N-(Cyclohexenylmethylen)-4-phenylpiperazin-1-amine] came in with a melting point of 118 to 120 °C. In addition, in series [1], the inhibition at 200 µM amounted to 58% and the “biological activity” value is “moderate activity”.

In turn, `CCC/C=C/C=N/N1CCN(c2ccccc2)CC1` [Compound 2b, (E)-N-((E)-Hex-2-enyliden)-4-phenylpiperazin-1-amine] had a melting point of 48 °C. Moreover, the inhibition at 200 µM in series [1] worked out at 12%.

For the origin of these results see article PMC4457358, “Structure–activity studies in the development of a hydrazone based inhibitor of adipose-triglyceride lipase (ATGL)” (Bioorganic & Medicinal Chemistry, 2015).
